Structures are written as SMILES.

T1 sequence (Q9Y5N1 whole entry): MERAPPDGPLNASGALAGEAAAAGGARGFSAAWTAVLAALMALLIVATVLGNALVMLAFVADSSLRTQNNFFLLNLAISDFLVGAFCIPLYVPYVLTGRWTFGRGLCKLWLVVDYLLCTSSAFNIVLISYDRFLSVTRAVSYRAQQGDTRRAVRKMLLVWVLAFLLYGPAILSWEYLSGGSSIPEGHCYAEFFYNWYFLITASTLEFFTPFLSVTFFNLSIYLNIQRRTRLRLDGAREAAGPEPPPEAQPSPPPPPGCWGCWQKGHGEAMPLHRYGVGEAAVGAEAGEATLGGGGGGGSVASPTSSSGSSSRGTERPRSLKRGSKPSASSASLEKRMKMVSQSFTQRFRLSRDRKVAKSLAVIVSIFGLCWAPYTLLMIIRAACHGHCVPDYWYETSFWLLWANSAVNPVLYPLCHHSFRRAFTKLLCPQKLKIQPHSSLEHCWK

This test concerns the target T1, human H3 receptors (Homo sapiens, UniProt Q9Y5N1).
T1 construct: host or cells: CHO-K1
Description: cAMP quantification assay for human H3 receptor testing. Format: cell-based. To be noted: CHO-K1 cells expressing human H3 receptors; inhibition of agonist-induced decrease of cAMP; 100 nM histamine, 10 μM forskolin; read-out: Potency range (IC50 values). On the procedure: CHO—K1 cell line expressing human H3 receptors were purchased from Euroscreen (Gosselies, Belgium, Cat. no.: ES-392-C)
Human H3 receptor-expressing cell-lines were grown in Ham's F12 [Sigma, Cat. no. N6658], supplemented with 10% FBS [Sigma, Cat. no. F9665], 400 μg/ml G418 [Sigma, Cat. no. N1876] and 250 μg/ml Zeocin [Invitrogen, Cat. no. 46-0509]) according to the protocol provided by Euroscreen.
The assay measures the ability of test compounds to inhibit Histamine receptor agonist-induced decrease of intracellular free cAMP (receptor is Gi coupled).
Specifically, a cAMP quantification assay system from DiscoveRx (cAMP XS+; Cat. no. 90-0075) was used.
For the cAMP assay, confluent cells were detached from the culture vessels with 1× trypsin-EDTA solution (Sigma), and seeded into 384-well Costar plates (white, clear bottom, Cat. no. 3707) at a density of 10,000 cells per well. Cells were seeded in a volume of 50 μl in medium without antibiotics and incubated overnight in a humidified atmosphere with 5% CO2 at 37° C. The cAMP assay was performed according to the protocol provided by DiscoveRx.
The cell culture medium was removed and the cells washed once with PBS (50 μl per well). The plates were emptied by inversion and 7.5 μl/well of compound in PBS (containing 1 mM IBMX and 0.03% BSA) were added and incubated for 30 min at 37° C.
Subsequent 7.5 μl/well specific agonist solution was added and the plates for another 30 min incubated at 37° C.
hH3:100 nM histamine, 10 μM forskolin in PBS (containing 1 mM IBMX and 0.03% BSA)
After the incubation with the agonist, 5 μl/well cAMP XS antibody solution was added followed by 20 μl/well Gal/EII/Lysis (1:5:19)+ED (1:1). The plates were incubated for one hour at room temperature and afterwards 20 μl/well EA reagent was added. The luminescence was developed for approximately three hours at room temperature and the plates were read out using a ‘BMG Novostar’ plate reader.
Test compounds were assayed at 8 concentrations in triplicate. Serial 10-fold dilutions in 100% DMSO were made at a 100-times higher concentration than the final concentration and then diluted with a 2 step protocol in assay buffer to reach the required assay concentrations and 1% DMSO. […]
As for `CNC(=O)c1ccc(OC2CN(C(=O)N3CCCN(C4CCC4)CC3)C2)c(C)c1` [Example 34, 4-({1-[(4-cyclobutyl-1,4-diazepan-1-yl)carbonyl]azetidin-3-yl}oxy)-N,3-dimethylbenzamide], the 50% inhibitory concentration (IC50) – broadly, the midpoint of a concentration-inhibition curve – was under 100 nM.

Regarding `O=C(NCC1CC1)c1ccc(OC2CN(C(=O)N3CCCN(C4CCC4)CC3)C2)cn1` [Example 35, 5-({1-[(4-cyclobutyl-1,4-diazepan-1-yl)carbonyl]azetidin-3-yl}oxy)-N-(cyclopropylmethyl)pyridine-2-carboxamide], the IC50 is under 100 nM.

Take `CNC(=O)c1ccc(OC2CN(C(=O)N3CCN(C4CCC4)CC3)C2)cn1` [Example 37, 5-({1-[(4-cyclobutylpiperazin-1-yl)carbonyl]azetidin-3-yl}oxy)-N-methylpyridine-2-carboxamide]: the IC50 was under 100 nM.

In the case of `O=C(N1CCN(C2CCC2)CC1)N1CC(Oc2ccccc2)C1` [Example 38, 1-cyclobutyl-4-[(3-phenoxyazetidin-1-yl)carbonyl]piperazine], the IC50 is under 100 nM.

In the case of `O=C(N1CCN(C2CCC2)CC1)N1CC(Oc2ccc(C(F)(F)F)cc2)C1` [Example 39, 1-cyclobutyl-4-({3-[4-(trifluoromethyl)phenoxy]azetidin-1-yl}carbonyl)piperazine], the half-inhibitory concentration (IC50) was under 100 nM.

Turning to `N#Cc1ccc(OC2CN(C(=O)N3CCN(C4CCC4)CC3)C2)cc1` [Example 40, 4-({1-[(4-cyclobutylpiperazin-1-yl)carbonyl]azetidin-3-yl}oxy)benzonitrile], the IC50 was under 100 nM.

For `O=C(N1CCN(C2CCC2)CC1)N1CC(Oc2ccc(F)cc2)C1` [Example 41, 1-cyclobutyl-4-{[3-(4-fluorophenoxy)azetidin-1-yl]carbonyl}piperazine], the IC50 is under 100 nM.

Regarding `O=C(N1CCCN(C2CCC2)CC1)N1CC(Oc2ccc3c(n2)CCN(C2CCC2)C3)C1` [Example 42, 6-cyclobutyl-2-({1-[(4-cyclobutyl-1,4-diazepan-1-yl)carbonyl]azetidin-3-yl}oxy)-5,6,7,8-tetrahydro-1,6-naphthyridine], the IC50 was under 100 nM.

As for `CNC(=O)c1ccc(OC2CN(C(=O)N3CCCN(C4CCC4)CC3)C2)c(F)c1` [Example 43, 4-({1-[(4-cyclobutyl-1,4-diazepan-1-yl)carbonyl]azetidin-3-yl}oxy)-3-fluoro-N-methylbenzamide], the IC50 is under 100 nM.

For `O=C(N1CCCN(C2CCC2)CC1)N1CC(Oc2ccc(I)cc2)C1` [Example 44, 1-cyclobutyl-4-{[3-(4-iodophenoxy)azetidin-1-yl]carbonyl}-1,4-diazepane], the IC50 was under 100 nM.

In the case of `O=C(N1CCCN(C2CCC2)CC1)N1CC(Oc2cncc(F)c2)C1` [Example 45, 1-cyclobutyl-4-({3-[(5-fluoropyridin-3-yl)oxy]azetidin-1-yl}carbonyl)-1,4-diazepane], the half-maximal inhibitory concentration (IC50) is under 100 nM.

Regarding `O=C(N1CCCN(C2CCC2)CC1)N1CC(Oc2ccc(Cl)nc2)C1` [Example 46, 1-({3-[(6-chloropyridin-3-yl)oxy]azetidin-1-yl}carbonyl)-4-cyclobutyl-1,4-diazepane], the concentration for half-maximal inhibition (IC50) was under 100 nM.

In the case of `CNC(=O)c1ccc(OC2CN(C(=O)N3CCCN(C4CCC4)CC3)C2)cc1F` [Example 47, 4-({1-[(4-cyclobutyl-1,4-diazepan-1-yl)carbonyl]azetidin-3-yl}oxy)-2-fluoro-N-methylbenzamide], the IC50 was under 100 nM.

Consider `O=C(N1CCCN(C2CCC2)CC1)N1CC(Oc2cnccc2Cl)C1` [Example 48, 1-({3-[(4-chloropyridin-3-yl)oxy]azetidin-1-yl}carbonyl)-4-cyclobutyl-1,4-diazepane], for which the concentration for half-maximal inhibition (IC50) was under 100 nM.

On to `O=C(N1CCCN(C2CCC2)CC1)N1CC(Oc2ccncc2F)C1` [Example 49, 1-cyclobutyl-4-({3-[(3-fluoropyridin-4-yl)oxy]azetidin-1-yl}carbonyl)-1,4-diazepane], for which the 50% inhibitory concentration (IC50) is under 100 nM.

As to `COc1nccc(OC2CN(C(=O)N3CCCN(C4CCC4)CC3)C2)n1` [Example 52, 1-cyclobutyl-4-({3-[(2-methoxypyrimidin-4-yl)oxy]azetidin-1-yl}carbonyl)-1,4-diazepane], the half-inhibitory concentration (IC50) is under 100 nM.

Take `CC(C)(O)c1cc(OC2CN(C(=O)N3CCCN(C4CCC4)CC3)C2)ccn1` [Example 53, 2-[4-({1-[(4-cyclobutyl-1,4-diazepan-1-yl)carbonyl]azetidin-3-yl}oxy)pyridin-2-yl]propan-2-ol]: the half-maximal inhibitory concentration (IC50) is under 100 nM.

For `CCc1cc(OC2CN(C(=O)N3CCCN(C4CCC4)CC3)C2)ccn1` [Example 54, 1-cyclobutyl-4-({3-[(2-ethylpyridin-4-yl)oxy]azetidin-1-yl}carbonyl)-1,4-diazepane], the 50% inhibitory concentration (IC50) is under 100 nM.

On to `CC(C)c1cc(OC2CN(C(=O)N3CCCN(C4CCC4)CC3)C2)ccn1` [Example 55, 1-cyclobutyl-4-[(3-{[2-(1-methylethyl)pyridin-4-yl]oxy}azetidin-1-yl)carbonyl]-1,4-diazepane], for which the half-inhibitory concentration (IC50) is under 100 nM.

`COc1cc(OC2CN(C(=O)N3CCCN(C4CCC4)CC3)C2)ccn1` [Example 56, 1-cyclobutyl-4-({3-[(2-methoxypyridin-4-yl)oxy]azetidin-1-yl}carbonyl)-1,4-diazepane]: the IC50 was under 100 nM.

For `Nc1cc(OC2CN(C(=O)N3CCCN(C4CCC4)CC3)C2)ccn1` [Example 57, 4-({1-[(4-cyclobutyl-1,4-diazepan-1-yl)carbonyl]azetidin-3-yl}oxy)pyridin-2-amine], the IC50 was under 100 nM.

For `CN(C)c1cc(OC2CN(C(=O)N3CCCN(C4CCC4)CC3)C2)ccn1` [Example 58, 4-({1-[(4-cyclobutyl-1,4-diazepan-1-yl)carbonyl]azetidin-3-yl}oxy)-N,N-dimethylpyridin-2-amine], the IC50 is under 100 nM.

Turning to `Cc1ccc(OC2CN(C(=O)N3CCCN(C4CCC4)CC3)C2)nn1` [Example 59, 1-cyclobutyl-4-({3-[(6-methylpyridazin-3-yl)oxy]azetidin-1-yl}carbonyl)-1,4-diazepane], the half-maximal inhibitory concentration (IC50) is under 100 nM.

In the case of `CC(C)(O)c1ccc(OC2CN(C(=O)N3CCCN(C4CCC4)CC3)C2)cc1F` [Example 60, 2-[4-({1-[(4-cyclobutyl-1,4-diazepan-1-yl)carbonyl]azetidin-3-yl}oxy)-2-fluorophenyl]propan-2-ol], the IC50 was under 100 nM.

As for `Cc1cnc(OC2CN(C(=O)N3CCCN(C4CCC4)CC3)C2)c(C)n1` [Example 61, 1-cyclobutyl-4-({3-[(3,5-dimethylpyrazin-2-yl)oxy]azetidin-1-yl}carbonyl)-1,4-diazepane], the IC50 was under 100 nM.

Regarding `Cc1cncc(OC2CN(C(=O)N3CCCN(C4CCC4)CC3)C2)n1` [Example 63, 1-cyclobutyl-4-({3-[(6-methylpyrazin-2-yl)oxy]azetidin-1-yl}carbonyl)-1,4-diazepane], the IC50 is under 100 nM.

In the case of `Cc1cnc(C)c(OC2CN(C(=O)N3CCCN(C4CCC4)CC3)C2)n1` [Example 64, 1-cyclobutyl-4-({3-[(3,6-dimethylpyrazin-2-yl)oxy]azetidin-1-yl}carbonyl)-1,4-diazepane], the IC50 is under 100 nM.

`Cc1nccc(OC2CN(C(=O)N3CCCN(C4CCC4)CC3)C2)n1` [Example 65, 1-cyclobutyl-4-({3-[(2-methylpyrimidin-4-yl)oxy]azetidin-1-yl}carbonyl)-1,4-diazepane]: the IC50 was under 100 nM.

As to `COc1cncc(OC2CN(C(=O)N3CCCN(C4CCC4)CC3)C2)n1` [Example 66, 1-cyclobutyl-4-({3-[(6-methoxypyrazin-2-yl)oxy]azetidin-1-yl}carbonyl)-1,4-diazepane], the half-maximal inhibitory concentration (IC50) was under 100 nM.

Turning to `O=C(N1CCCN(C2CCC2)CC1)N1CC(Oc2ccncc2Cl)C1` [Example 67], the half-inhibitory concentration (IC50) was under 100 nM.

As for `O=C(N1CCCN(C2CCC2)CC1)N1CC(Oc2ccnc3ccccc23)C1` [Example 68, 4-({1-[(4-cyclobutyl-1,4-diazepan-1-yl)carbonyl]azetidin-3-yl}oxy)quinoline], the IC50 was under 100 nM.

With `Cc1cc(OC2CN(C(=O)N3CCCN(C4CCC4)CC3)C2)cc(C)n1` [Example 69, 1-cyclobutyl-4-({3-[(2,6-dimethylpyridin-4-yl)oxy]azetidin-1-yl}carbonyl)-1,4-diazepane], the IC50 was under 100 nM.

As for `O=C(N1CCCN(C2CCC2)CC1)N1CC(Oc2cccn3ccnc23)C1` [Example 70, 8-({1-[(4-cyclobutyl-1,4-diazepan-1-yl)carbonyl]azetidin-3-yl}oxy)imidazo[1,2-a]pyridine], the IC50 was under 100 nM.

For the compound `O=C(N1CCCN(C2CCC2)CC1)N1CC(Oc2ccn3ccnc3c2)C1` [Example 71, 7-({1-[(4-cyclobutyl-1,4-diazepan-1-yl)carbonyl]azetidin-3-yl}oxy)imidazo[1,2-a]pyridine], the IC50 is under 100 nM.

Source of the values: patent US8691804B2 (Evotec AG, priority 2008, dated 2014).
